Source: paper PMC8434392, “Harnessing the Anti-Nociceptive Potential of NK2 and NK3 Ligands in the Design of New Multifunctional μ/δ-Opioid Agonist–Neurokinin Antagonist Peptidomimetics” (Molecules, 2021)
Read-outs that look alike come from different tables or passages of the source. Marks after values point to notes of the source that are not given here. Numbered stars: 1 amine (or outer) side, 2 acyl side, 3 side chain; on linkers, the order of the positions; unused ones are H or OH. Square brackets hold non-standard residues; d marks the D form. Peptide text beside a SMILES is read from it. * marks the point of attachment. X3 = O=C(c1c(OCCN[*:1])c(-c2ccccc2)nc2ccccc12)[*:2]; X1 = O=C1[C@@H](N[*:1])Cc2ccccc2CN1CCC(=O)[*:2]; NH(1S-phenylpropyl) = CC[C@H](N*)c1ccccc1; Dmt = Cc1cc(O)cc(C)c1C[C@H](N)C(=O)O; 4Amb = NCc1ccc(C(=O)O)cc1; Ac5c = NC1(C(=O)O)CCCC1; X2 = C(CN*)CN1CCOCC1

What was measured:
[1] = target: T1, human recombinant KOR (Homo sapiens, UniProt P41145); test: Calcium mobilization assay, CHO KOR cells with Gαqi5; assay type: cell-based; details: for KOR α ± SEM: intrinsic activity: Emax of ligand / Emax of dynorphin A
T1 construct: expressed in transfected cells; host or cells: CHO cells (gift from Prof. Girolamo Calo', Ferrara University)
T1 sequence (P41145 whole entry): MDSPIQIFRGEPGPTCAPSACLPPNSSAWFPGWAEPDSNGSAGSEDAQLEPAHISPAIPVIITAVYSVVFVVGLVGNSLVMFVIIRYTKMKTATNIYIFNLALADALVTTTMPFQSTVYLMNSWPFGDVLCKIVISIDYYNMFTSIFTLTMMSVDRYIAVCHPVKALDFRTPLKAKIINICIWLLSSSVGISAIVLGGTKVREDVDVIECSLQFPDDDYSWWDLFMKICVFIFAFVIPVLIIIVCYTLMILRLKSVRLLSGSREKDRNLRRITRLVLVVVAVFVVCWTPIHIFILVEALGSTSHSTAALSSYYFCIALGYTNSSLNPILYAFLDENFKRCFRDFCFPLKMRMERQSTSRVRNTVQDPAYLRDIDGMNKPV

[2] = target: T2, human recombinant MOR (Homo sapiens, UniProt P35372); test: Calcium mobilization assay, CHO MOR cells with Gαqi5; assay type: cell-based; details: for EC50 / reduction in potency at MOR compared to dermorphin / reduction in potency at MOR compared to opioid parent pharmacophore KGOP01: calcium mobilization; for EC50: CHO MOR Gαqi5, maximum tested concentration 10 µM, read-out: MOR EC50 ± SEM; for MOR α ± SEM: intrinsic activity: Emax of ligand / Emax of dermorphin
T2 construct: expressed in transfected cells; host or cells: CHO cells (gift from Prof. Girolamo Calo', Ferrara University)
T2 sequence (P35372 whole entry): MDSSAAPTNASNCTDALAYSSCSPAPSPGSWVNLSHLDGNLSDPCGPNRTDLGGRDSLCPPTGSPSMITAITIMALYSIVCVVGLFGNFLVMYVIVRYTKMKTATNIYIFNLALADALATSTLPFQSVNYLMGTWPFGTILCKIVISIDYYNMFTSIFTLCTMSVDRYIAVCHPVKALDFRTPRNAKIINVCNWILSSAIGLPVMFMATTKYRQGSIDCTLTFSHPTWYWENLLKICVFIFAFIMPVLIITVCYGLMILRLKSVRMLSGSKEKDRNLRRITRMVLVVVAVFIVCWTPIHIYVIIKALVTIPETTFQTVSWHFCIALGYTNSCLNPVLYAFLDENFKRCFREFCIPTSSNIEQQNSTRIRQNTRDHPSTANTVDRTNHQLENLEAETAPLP

[3] = target: T3, human recombinant DOR (Homo sapiens, UniProt P41143); test: Opioid receptor radioligand binding assay, DOR
T3 construct: expressed in transfected cells; host or cells: CHO cells (gift from Prof. Girolamo Calo', Ferrara University)
T3 sequence (P41143 whole entry): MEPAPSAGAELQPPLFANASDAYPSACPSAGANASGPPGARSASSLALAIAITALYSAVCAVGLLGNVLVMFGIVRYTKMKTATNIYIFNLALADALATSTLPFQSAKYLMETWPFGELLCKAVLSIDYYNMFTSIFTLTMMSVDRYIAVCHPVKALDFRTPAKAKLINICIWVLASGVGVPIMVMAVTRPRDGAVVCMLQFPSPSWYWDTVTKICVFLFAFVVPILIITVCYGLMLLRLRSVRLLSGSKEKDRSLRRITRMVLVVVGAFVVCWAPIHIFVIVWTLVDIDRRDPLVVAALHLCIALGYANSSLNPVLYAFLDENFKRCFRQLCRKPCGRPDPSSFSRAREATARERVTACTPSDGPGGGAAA

[4] = target: T1, human recombinant KOR; test: Opioid receptor radioligand binding assay, KOR
[5] = target: T3, human recombinant DOR; test: Calcium mobilization assay, CHO DOR cells with GαqG66Di5; assay type: cell-based; details: for EC50 / DOR EC50 ± SEM (nM) / decreased potency at DOR compared to reference DPDPE: calcium mobilization; for EC50 / DOR EC50 ± SEM (nM): CHO DOR GαqG66Di5, maximum tested concentration 10 µM; for EC50: read-out: DOR EC50 ± SEM; for DOR α ± SEM: intrinsic activity: Emax of ligand / Emax of DPDPE
[6] = target: T4, NK2 (h) (Homo sapiens, UniProt P21452); test: NK2 radioligand binding assay (Eurofins)
T4 construct: host or cells: CHO cells
T4 sequence (P21452 1-398): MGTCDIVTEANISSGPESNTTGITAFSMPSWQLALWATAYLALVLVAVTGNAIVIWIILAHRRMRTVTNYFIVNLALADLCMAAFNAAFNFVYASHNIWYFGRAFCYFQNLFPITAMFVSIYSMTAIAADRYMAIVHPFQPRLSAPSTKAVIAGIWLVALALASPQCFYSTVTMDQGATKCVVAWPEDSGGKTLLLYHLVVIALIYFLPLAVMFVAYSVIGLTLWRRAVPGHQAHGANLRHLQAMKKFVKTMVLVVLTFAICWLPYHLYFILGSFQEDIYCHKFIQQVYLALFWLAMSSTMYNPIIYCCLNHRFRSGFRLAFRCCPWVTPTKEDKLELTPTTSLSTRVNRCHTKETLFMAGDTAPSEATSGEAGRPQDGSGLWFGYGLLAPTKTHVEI

[7] = target: T5, NK3 (h) (Homo sapiens, UniProt P29371); test: NK3 radioligand binding assay (Eurofins)
T5 construct: host or cells: CHO cells
T5 sequence (P29371 1-465): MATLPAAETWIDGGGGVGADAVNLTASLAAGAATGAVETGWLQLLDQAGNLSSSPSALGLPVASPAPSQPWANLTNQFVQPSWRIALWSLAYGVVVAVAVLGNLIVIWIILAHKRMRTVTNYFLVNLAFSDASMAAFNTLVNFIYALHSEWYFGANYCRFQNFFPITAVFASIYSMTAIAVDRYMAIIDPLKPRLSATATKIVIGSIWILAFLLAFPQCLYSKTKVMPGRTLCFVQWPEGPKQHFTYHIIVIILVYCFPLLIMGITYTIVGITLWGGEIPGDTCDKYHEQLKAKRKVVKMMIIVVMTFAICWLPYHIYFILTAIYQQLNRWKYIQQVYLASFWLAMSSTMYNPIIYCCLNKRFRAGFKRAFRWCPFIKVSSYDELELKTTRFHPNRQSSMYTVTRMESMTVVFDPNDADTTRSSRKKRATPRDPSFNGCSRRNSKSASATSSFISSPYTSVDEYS

[8] = target: T2, human recombinant MOR; test: Opioid receptor radioligand binding assay, MOR
[9] = target: T3, human recombinant DOR; parameters: method as in PMID 23007594; details: intrinsic activity; data from reported literature ref 30; cited from earlier work
[10] = calcium mobilization, CHO KOR Gαqi5, maximum tested concentration 10 µM, crc = concentration-response curve
[11] = [125I]NKA 0.1 nM, human recombinant (CHO cells), 60 min RT, n.c. = less than 25% inhibitory binding at highest validated test concentrations, read-out: IC50 [nM] ± SEM, NK2 receptor
[12] = [125I]NKA 0.1 nM, human recombinant (CHO cells), Cheng Prusoff, n.c. = not calculated, read-out: Ki [nM] ± SEM, NK2 receptor
[13] = [3H][Ile5,6]deltorphin-2 displacement, CHO cell membranes, human recombinant receptor
[14] = [3H]DAMGO displacement, CHO cell membranes, human recombinant receptor

SMILES	KOR EC50 ± SEM (nM) [1, 10]	KOR α ± SEM [1]	EC50 [2]	Ki [3]	Ki [4]	EC50 [5]	MOR α ± SEM [2]	DOR α ± SEM [5]	Ki [8]	also measured
CC1(C)SSC(C)(C)[C@@H](NC(=O)[C@@H](N)Cc2ccc(O)cc2)C(=O)NCC(=O)N[C@@H](Cc2ccccc2)C(=O)N[C@H]1C(=O)O [DPDPE, reference compound]	inactive	inactive								
Cc1cc(O)cc(C)c1C[C@H](N)C(=O)N[C@H](CCCNC(=N)N)C(=O)N[C@H]1Cc2ccccc2CN(CCC(N)=O)C1=O [KGOP01, H-Dmt-D-Arg-Aba-βAla-NH2, reference compound]	crc incomplete		0.54 ± 0.06 nM	4.88 ± 0.11 nM	72.7 ± 4.32 nM	75.6 ± 13.1 nM				
CC(=O)N[C@@H](CC(=O)O)C(=O)N[C@@H](Cc1ccc(O)cc1)C(=O)N[C@H](Cc1c[nH]c2ccccc12)C(=O)N[C@H](C(=O)N[C@H](Cc1c[nH]c2ccccc12)C(=O)N[C@H](Cc1c[nH]c2ccccc12)C(=O)N[C@@H](CCCCN)C(N)=O)C(C)C [SBL-OPNK-1] (Ac-DY[dW]V[dW][dW]K-NH2)										IC50 [6, 11]: 33.6 ± 11.9 nM; Ki [6, 12]: 18.3 ± 13 nM; lower NK2 binding affinity compared to the reference compound ([6]; reference [Nle10]-NKA(4-10)): about 17 fold
CC[C@H](NC(=O)c1c(OCCNC(C)=O)c(-c2ccccc2)nc2ccccc12)c1ccccc1 [SBL-OPNK-3]										IC50 ([7]; [3H]SR 142801 0.4 nM, human recombinant (CHO cells), 120 min RT, read-out: IC50 [nM] ± SEM, NK3 receptor): 20.3 ± 7.2 nM; Ki ([7]; [3H]SR 142801 0.4 nM, human recombinant (CHO cells), Cheng Prusoff, read-out: Ki [nM] ± SEM, NK3 receptor): 11 ± 7.8 nM
Cc1cc(O)cc(C)c1C[C@H](N)C(=O)N[C@H](CCCNC(=N)N)C(=O)N[C@@H](Cc1ccccc1)C(=O)N[C@@H](CCCCN)C(=O)N[C@@H](CC(=O)O)C(=O)N[C@@H](Cc1ccc(O)cc1)C(=O)N[C@H](Cc1c[nH]c2ccccc12)C(=O)N[C@H](C(=O)N[C@H](Cc1c[nH]c2ccccc12)C(=O)N[C@H](Cc1c[nH]c2ccccc12)C(=O)N[C@@H](CCCCN)C(N)=O)C(C)C [SBL-OPNK-4] (H-[Dmt][dR]FKDY[dW]V[dW][dW]K-NH2)	crc incomplete	crc incomplete	815 ± 145 nM	1250 nM	90.5 ± 5.69 nM		0.74 ± 0.05	inactive	1.02 ± 0.03 nM	Ki [nM] ± SEM DOR [3, 13]: did not bind efficiently; DOR EC50 ± SEM (nM) [5]: inactive
Cc1cc(O)cc(C)c1C[C@H](N)C(=O)N[C@H](CCCNC(=N)N)C(=O)N[C@H]1Cc2ccccc2CN(CCC(=O)N[C@@H](CC(=O)O)C(=O)N[C@@H](Cc2ccc(O)cc2)C(=O)N[C@H](Cc2c[nH]c3ccccc23)C(=O)N[C@H](C(=O)N[C@H](Cc2c[nH]c3ccccc23)C(=O)N[C@H](Cc2c[nH]c3ccccc23)C(=O)N[C@@H](CCCCN)C(N)=O)C(C)C)C1=O [SBL-OPNK-5] (H-[Dmt][dR][X1]DY[dW]V[dW][dW]K-NH2)		0.44 ± 0.06	10.2 ± 0.67 nM	10 ± 3.2 nM	90.7 ± 0.94 nM	118 ± 26 nM	0.91 ± 0.04	1.01 ± 0.03	2.11 ± 0.04 nM	reduction in potency at MOR compared to dermorphin [2]: 2 fold; reduction in potency at MOR compared to opioid parent pharmacophore KGOP01 [2]: 18 fold; IC50 [6]: 3 ± 1 nM; Ki [6]: 1.6 ± 1.1 nM; decreased potency at DOR compared to reference DPDPE [5]: 2–3 fold; EC50 ([1]; calcium mobilization, CHO KOR Gαqi5, maximum tested concentration 10 µM, crc = concentration-response curve, read-out: KOR EC50 ± SEM): 415 ± 133 nM
Cc1cc(O)cc(C)c1C[C@H](N)C(=O)N[C@H](CCCNC(=N)N)C(=O)N[C@@H](Cc1ccccc1)C(=O)N[C@@H](CCCCN)C(=O)NCc1ccc(C(=O)NC2(C(=O)N[C@H](Cc3ccccc3)C(=O)NCCCN3CCOCC3)CCCC2)cc1 [SBL-OPNK-6] (H-[Dmt][dR]FK[4Amb][Ac5c][dF]-X2)	crc incomplete	crc incomplete	988 ± 82 nM	22400 nM	100 ± 1.16 nM		0.67 ± 0.05	inactive	74.93 ± 0.15 nM	Ki [nM] ± SEM DOR [3, 13]: did not bind efficiently; DOR EC50 ± SEM (nM) [5]: inactive; Ki [nM] ± SEM MOR [8, 14]: Weak binding
Cc1cc(O)cc(C)c1C[C@H](N)C(=O)N[C@H](CCCNC(=N)N)C(=O)N[C@H]1Cc2ccccc2CN(CCC(=O)NCc2ccc(C(=O)NC3(C(=O)N[C@H](Cc4ccccc4)C(=O)NCCCN4CCOCC4)CCCC3)cc2)C1=O [SBL-OPNK-7] (H-[Dmt][dR][X1][4Amb][Ac5c][dF]-X2)	completely inactive	inactive	13.1 ± 1.84 nM			66.5 ± 11.7 nM	0.89 ± 0.04	1.02 ± 0.02		reduction in potency at MOR compared to dermorphin [2]: 3 fold; reduction in potency at MOR compared to opioid parent pharmacophore KGOP01 [2]: 24 fold; Ki ([3]; [3H][Ile5,6]deltorphin-2 displacement, CHO cell membranes, human recombinant receptor, read-out: Ki [nM] ± SEM DOR): 3.26 ± 0.09 nM; Ki ([4]; [3H]nor-BNI displacement, CHO cell membranes, human recombinant receptor, read-out: Ki [nM] ± SEM KOR): 53 ± 3.2 nM; IC50 [6, 11]: 0.63 ± 0.22 nM; Ki [6, 12]: 0.34 ± 0.24 nM; decreased potency at DOR compared to reference DPDPE [5]: 2–3 fold; Ki ([8]; [3H]DAMGO displacement, CHO cell membranes, human recombinant receptor, read-out: Ki [nM] ± SEM MOR): 2.83 ± 0.02 nM
CC[C@H](NC(=O)c1c(OCCNC(=O)[C@H](CCCCN)NC(=O)[C@H](Cc2ccccc2)NC(=O)[C@@H](CCCNC(=N)N)NC(=O)[C@@H](N)Cc2c(C)cc(O)cc2C)c(-c2ccccc2)nc2ccccc12)c1ccccc1 [SBL-OPNK-8] (H-[Dmt][dR]FK[X3]-{NH(1S-phenylpropyl)})	crc incomplete	crc incomplete	916 ± 106 nM	4570 nM	104 ± 6.12 nM		0.65 ± 0.02	inactive	120 ± 5.25 nM	Ki [nM] ± SEM DOR [3, 13]: did not bind efficiently; DOR EC50 ± SEM (nM) [5]: inactive; Ki [nM] ± SEM MOR [8, 14]: Weak binding
CC[C@H](NC(=O)c1c(OCCNC(=O)CCN2Cc3ccccc3C[C@H](NC(=O)[C@@H](CCCNC(=N)N)NC(=O)[C@@H](N)Cc3c(C)cc(O)cc3C)C2=O)c(-c2ccccc2)nc2ccccc12)c1ccccc1 [SBL-OPNK-9]	crc incomplete	crc incomplete	31.3 ± 7.39 nM	6.57 ± 4.02 nM	97.1 ± 4.72 nM	84.1 ± 18 nM	0.83 ± 0.05	1.02 ± 0.03	5.43 ± 0.08 nM	IC50 [7]: 6.7 ± 2.4 nM; Ki [7]: 3.6 ± 2.5 nM; increase of NK3 affinity and potency compared to reference SB 222200 [7]: 1.5 fold; decreased potency at DOR compared to reference DPDPE [5]: 2–3 fold
CC[C@H](C)[C@H](NC(=O)[C@H](CCCNC(=N)N)NC(=O)[C@H](CCCNC(=N)N)NC(=O)[C@H](CC(C)C)NC(=O)[C@H](Cc1ccccc1)NC(=O)CNC(=O)CNC(=O)[C@@H](N)Cc1ccc(O)cc1)C(=O)N[C@@H](CCCNC(=N)N)C(=O)N1CCC[C@H]1C(=O)N[C@@H](CCCCN)C(=O)N[C@@H](CC(C)C)C(=O)N[C@@H](CCCCN)C(=O)N[C@@H](Cc1c[nH]c2ccccc12)C(=O)N[C@@H](CC(=O)O)C(=O)N[C@@H](CC(N)=O)C(=O)N[C@@H](CCC(N)=O)C(=O)O [dynorphin A]										DOR α ± SEM [9]: 0.99 ± 0.04 ^a
